Results taken from ChEMBL document CHEMBL1143494 (Bioorg Med Chem Lett, 2005).

Legend:
Collagenase 3 = Collagenase 3 (Homo sapiens, UniProt P45452); assay: Inhibitory concentration against MMP-13
Homo sapiens = species: Homo sapiens; assay: Ratio of the inhibitory concentration against MMP-2 to that of MMP-13
[1] = biological target: T1, A disintegrin and metalloproteinase with thrombospondin motifs 4 (Homo sapiens, UniProt O75173); assay: Inhibitory concentration against Aggrecanase 1
T1 sequence (O75173 whole entry): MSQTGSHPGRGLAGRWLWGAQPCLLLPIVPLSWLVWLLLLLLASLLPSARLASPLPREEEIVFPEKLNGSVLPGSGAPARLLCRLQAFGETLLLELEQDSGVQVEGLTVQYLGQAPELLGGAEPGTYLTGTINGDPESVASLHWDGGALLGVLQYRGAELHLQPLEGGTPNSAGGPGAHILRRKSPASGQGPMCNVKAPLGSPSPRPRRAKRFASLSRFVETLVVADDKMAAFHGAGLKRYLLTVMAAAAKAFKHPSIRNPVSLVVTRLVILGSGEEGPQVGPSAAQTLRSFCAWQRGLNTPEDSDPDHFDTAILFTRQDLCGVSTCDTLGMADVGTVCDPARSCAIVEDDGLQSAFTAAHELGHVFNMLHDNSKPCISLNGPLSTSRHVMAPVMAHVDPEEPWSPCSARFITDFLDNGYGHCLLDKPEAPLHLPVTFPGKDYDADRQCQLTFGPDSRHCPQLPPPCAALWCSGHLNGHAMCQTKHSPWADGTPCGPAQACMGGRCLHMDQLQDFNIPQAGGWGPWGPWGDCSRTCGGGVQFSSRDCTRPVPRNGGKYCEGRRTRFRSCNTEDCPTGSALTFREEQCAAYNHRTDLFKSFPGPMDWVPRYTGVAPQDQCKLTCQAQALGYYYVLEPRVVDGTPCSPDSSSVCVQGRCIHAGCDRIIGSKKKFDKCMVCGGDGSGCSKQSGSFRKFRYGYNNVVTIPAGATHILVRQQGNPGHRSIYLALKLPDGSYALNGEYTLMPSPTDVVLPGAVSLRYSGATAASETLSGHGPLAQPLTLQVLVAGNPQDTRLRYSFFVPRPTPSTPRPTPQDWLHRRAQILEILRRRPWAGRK

[2] = biological target: T2, Disintegrin and metalloproteinase domain-containing protein 17 (Homo sapiens, UniProt P78536); assay: Percent inhibition at 25 uM against TACE
[3] = biological target: Matrix metalloproteinase-9 (Homo sapiens) (UniProt P14780); assay: Percent inhibition at 25 uM against MMP-9
Interstitial collagenase = biological target: T3, Interstitial collagenase (Homo sapiens, UniProt P03956); assay: Inhibitory concentration against MMP-1
T3 sequence (P03956 whole entry): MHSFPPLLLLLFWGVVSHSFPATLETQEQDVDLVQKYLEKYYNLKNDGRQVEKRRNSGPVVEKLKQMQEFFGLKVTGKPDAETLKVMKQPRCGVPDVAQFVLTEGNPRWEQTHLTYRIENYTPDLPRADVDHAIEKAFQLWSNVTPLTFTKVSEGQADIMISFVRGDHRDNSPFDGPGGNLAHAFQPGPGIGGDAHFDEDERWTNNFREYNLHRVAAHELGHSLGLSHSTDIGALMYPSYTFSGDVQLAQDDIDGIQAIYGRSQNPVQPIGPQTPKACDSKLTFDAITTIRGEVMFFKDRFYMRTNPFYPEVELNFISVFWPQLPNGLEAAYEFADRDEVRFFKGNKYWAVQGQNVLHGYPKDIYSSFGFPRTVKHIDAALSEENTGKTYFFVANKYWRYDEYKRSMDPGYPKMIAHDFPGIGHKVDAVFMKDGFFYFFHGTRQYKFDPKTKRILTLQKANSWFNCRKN

Stromelysin-1 = Stromelysin-1 (Homo sapiens, UniProt P08254); assay: Inhibitory concentration against MMP-3
Matrilysin = biological target: T4, Matrilysin (Homo sapiens, UniProt P09237); assay: Inhibitory concentration against MMP-7
T4 sequence (P09237 whole entry): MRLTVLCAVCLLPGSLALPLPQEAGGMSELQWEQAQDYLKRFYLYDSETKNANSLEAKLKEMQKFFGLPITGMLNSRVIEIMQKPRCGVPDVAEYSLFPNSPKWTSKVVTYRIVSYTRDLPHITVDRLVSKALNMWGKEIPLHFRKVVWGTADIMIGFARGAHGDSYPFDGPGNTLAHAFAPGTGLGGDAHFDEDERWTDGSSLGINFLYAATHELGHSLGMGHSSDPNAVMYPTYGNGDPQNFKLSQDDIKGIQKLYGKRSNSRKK

Neutrophil collagenase = Neutrophil collagenase (Homo sapiens, UniProt P22894); assay: Inhibitory concentration against MMP-8
[4] = biological target: Matrix metalloproteinase-14 (Homo sapiens, UniProt P50281)
Description: Inhibitory concentration against MMP-14

[5] = biological target: T2, Disintegrin and metalloproteinase domain-containing protein 17; assay: Inhibitory concentration against TACE
[6] = biological target: 72 kDa type IV collagenase (Homo sapiens, UniProt P08253); assay: Inhibitory concentration against MMP-2
Chain of 72 kDa type IV collagenase (P08253 whole entry): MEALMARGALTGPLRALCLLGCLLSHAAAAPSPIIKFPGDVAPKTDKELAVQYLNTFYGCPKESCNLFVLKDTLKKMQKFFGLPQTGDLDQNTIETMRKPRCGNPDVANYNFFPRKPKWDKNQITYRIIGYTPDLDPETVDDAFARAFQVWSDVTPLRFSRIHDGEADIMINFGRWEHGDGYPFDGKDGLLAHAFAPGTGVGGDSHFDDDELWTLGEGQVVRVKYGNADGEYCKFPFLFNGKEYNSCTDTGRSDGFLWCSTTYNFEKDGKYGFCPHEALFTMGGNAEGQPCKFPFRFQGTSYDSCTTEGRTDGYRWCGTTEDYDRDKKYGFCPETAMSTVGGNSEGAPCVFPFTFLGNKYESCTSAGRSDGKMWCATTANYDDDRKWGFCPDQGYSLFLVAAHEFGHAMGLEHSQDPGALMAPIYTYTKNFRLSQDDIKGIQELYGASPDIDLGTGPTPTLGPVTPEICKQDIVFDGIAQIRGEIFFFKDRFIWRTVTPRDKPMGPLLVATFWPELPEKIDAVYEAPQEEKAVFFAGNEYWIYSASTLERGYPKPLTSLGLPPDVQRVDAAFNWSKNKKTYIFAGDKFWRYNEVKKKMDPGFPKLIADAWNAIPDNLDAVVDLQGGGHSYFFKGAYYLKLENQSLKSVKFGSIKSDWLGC

T2 sequence (P78536 whole entry, the tested form may be a part): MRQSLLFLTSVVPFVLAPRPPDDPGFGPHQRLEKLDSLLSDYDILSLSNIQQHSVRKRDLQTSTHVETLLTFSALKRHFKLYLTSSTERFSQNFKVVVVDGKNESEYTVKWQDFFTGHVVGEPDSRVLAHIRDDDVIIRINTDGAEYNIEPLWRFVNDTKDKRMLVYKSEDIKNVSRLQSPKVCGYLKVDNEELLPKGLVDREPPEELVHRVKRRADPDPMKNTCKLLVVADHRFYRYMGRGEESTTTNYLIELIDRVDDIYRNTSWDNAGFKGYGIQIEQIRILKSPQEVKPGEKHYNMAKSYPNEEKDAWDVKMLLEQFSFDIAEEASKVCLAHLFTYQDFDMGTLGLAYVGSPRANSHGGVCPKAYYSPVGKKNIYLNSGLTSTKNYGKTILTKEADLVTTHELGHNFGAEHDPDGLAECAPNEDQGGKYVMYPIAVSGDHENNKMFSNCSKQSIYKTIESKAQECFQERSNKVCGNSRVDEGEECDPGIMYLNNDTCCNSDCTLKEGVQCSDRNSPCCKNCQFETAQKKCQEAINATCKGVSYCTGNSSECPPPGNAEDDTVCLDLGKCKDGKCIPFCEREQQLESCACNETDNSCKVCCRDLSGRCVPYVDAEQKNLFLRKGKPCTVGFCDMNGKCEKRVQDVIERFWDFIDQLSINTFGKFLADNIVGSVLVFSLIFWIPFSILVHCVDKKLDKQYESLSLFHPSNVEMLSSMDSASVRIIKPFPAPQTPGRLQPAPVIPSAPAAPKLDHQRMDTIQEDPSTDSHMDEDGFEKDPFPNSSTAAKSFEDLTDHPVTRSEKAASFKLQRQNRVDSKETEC
Chain of Matrix metalloproteinase-9 (Homo sapiens) (P14780 whole entry): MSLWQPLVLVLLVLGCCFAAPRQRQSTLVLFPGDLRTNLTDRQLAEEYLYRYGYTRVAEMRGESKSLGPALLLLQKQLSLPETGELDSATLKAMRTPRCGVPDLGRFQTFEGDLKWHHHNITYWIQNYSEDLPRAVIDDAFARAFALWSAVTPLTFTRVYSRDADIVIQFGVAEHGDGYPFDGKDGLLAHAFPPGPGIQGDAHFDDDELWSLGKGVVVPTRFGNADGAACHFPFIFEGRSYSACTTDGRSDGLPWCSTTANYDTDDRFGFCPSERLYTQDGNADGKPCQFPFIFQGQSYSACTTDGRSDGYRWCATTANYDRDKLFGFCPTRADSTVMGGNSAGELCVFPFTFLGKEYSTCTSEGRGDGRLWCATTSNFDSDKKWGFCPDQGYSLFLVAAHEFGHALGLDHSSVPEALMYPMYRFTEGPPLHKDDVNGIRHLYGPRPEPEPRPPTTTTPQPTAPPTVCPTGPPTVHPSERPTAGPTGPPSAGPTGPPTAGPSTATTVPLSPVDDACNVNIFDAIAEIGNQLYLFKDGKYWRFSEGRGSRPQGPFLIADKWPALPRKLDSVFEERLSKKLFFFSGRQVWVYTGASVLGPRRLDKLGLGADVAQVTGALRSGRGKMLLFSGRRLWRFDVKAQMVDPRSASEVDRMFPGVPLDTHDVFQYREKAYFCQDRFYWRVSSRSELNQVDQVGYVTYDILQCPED
Chain of Neutrophil collagenase (P22894 whole entry): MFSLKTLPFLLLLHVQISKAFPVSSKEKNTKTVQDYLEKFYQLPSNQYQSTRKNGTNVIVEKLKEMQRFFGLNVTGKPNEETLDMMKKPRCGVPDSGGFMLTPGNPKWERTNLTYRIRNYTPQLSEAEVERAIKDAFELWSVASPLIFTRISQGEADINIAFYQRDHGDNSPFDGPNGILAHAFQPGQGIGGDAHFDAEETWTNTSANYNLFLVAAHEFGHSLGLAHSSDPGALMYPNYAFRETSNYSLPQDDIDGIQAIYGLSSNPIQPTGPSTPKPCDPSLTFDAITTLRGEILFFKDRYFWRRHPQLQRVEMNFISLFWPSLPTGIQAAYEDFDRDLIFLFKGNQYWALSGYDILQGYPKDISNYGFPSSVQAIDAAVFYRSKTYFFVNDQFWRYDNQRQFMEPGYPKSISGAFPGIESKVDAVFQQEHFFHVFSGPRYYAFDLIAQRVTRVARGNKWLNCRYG
Chain of Stromelysin-1 (P08254 whole entry): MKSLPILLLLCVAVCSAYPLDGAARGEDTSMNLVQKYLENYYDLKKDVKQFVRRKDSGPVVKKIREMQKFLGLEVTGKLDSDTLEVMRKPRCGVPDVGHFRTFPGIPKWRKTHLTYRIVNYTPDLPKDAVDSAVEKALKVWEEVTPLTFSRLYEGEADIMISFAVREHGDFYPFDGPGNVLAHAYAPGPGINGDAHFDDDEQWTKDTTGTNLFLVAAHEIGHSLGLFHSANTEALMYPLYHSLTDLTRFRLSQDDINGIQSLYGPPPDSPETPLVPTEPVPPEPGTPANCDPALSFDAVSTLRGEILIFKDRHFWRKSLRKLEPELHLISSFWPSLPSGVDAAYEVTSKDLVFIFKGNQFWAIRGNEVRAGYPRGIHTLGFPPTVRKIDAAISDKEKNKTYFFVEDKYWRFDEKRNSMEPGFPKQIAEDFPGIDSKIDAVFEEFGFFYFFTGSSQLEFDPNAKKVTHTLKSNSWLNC

CCc1c(C(=O)Nc2ccc(-c3ccc(S(=O)(=O)N[C@H](C(=O)O)C(C)C)cc3)cc2)oc2ccccc12
IC50 (Collagenase 3): 55 nM
Ratio (Homo sapiens): 32

COc1c(C#N)ccc2oc(C(=O)Nc3ccc(-c4ccc(S(=O)(=O)N[C@H](C(=O)O)C(C)C)cc4)cc3)c(C)c12
Ratio (Homo sapiens): 175

COc1c(Cl)ccc2oc(C(=O)Nc3ccc(-c4ccc(S(=O)(=O)N[C@H](C(=O)O)C(C)C)cc4)cc3)c(C)c12
Ratio (Homo sapiens): 785

CC(C)[C@H](NS(=O)(=O)c1ccc(-c2ccc(NC(=O)c3cc4cc(Br)ccc4o3)cc2)cc1)C(=O)O
IC50 (Collagenase 3): 0.61 nM
Ratio (Homo sapiens): 1

CC(=O)c1ccc2oc(C(=O)Nc3ccc(-c4ccc(S(=O)(=O)N[C@H](C(=O)O)C(C)C)cc4)cc3)c(C)c2c1O
Ratio (Homo sapiens): 20

Cc1c(C(=O)Nc2ccc(-c3ccc(S(=O)(=O)N[C@H](C(=O)O)C(C)C)cc3)cc2)oc2ccccc12
Ratio (Homo sapiens): 44

CCc1ccc2oc(C(=O)Nc3ccc(-c4ccc(S(=O)(=O)N[C@H](C(=O)O)C(C)C)cc4)cc3)c(C)c2c1OC(C)C
Ratio (Homo sapiens): 260

Cc1c(C(=O)Nc2ccc(-c3ccc(S(=O)(=O)N[C@H](C(=O)O)C(C)C)cc3)cc2)oc2ccc(Cl)c(OC(C)C)c12
IC50 [1]: 14300 nM
inhibition [2]: 98%
inhibition [3]: 51%
IC50 (Interstitial collagenase): 37100 nM
IC50 (Stromelysin-1): 1090 nM
IC50 (Matrilysin): 1640 nM
IC50 (Neutrophil collagenase): 110 nM
Ratio (Homo sapiens): 275
IC50 [4]: 50000 nM

COc1c(Br)ccc2oc(C(=O)Nc3ccc(-c4ccc(S(=O)(=O)N[C@H](C(=O)O)C(C)C)cc4)cc3)c(C)c12
IC50 [1]: 5600 nM
inhibition [3]: 66%
IC50 [5]: 34000 nM
IC50 (Stromelysin-1): 144 nM
IC50 (Matrilysin): 866 nM
IC50 (Neutrophil collagenase): 73 nM
Ratio (Homo sapiens): 740
IC50 [4]: 15000 nM

Cc1c(C(=O)Nc2ccc(-c3ccc(S(=O)(=O)N[C@H](C(=O)O)C(C)C)cc3)cc2)oc2ccc(Br)cc12
Ratio (Homo sapiens): 27

CCc1ccc2oc(C(=O)Nc3ccc(-c4ccc(S(=O)(=O)N[C@H](C(=O)O)C(C)C)cc4)cc3)c(C)c2c1OC
IC50 [1]: > 15000 nM
inhibition [2]: 43%
inhibition [3]: 64%
IC50 (Interstitial collagenase): 28000 nM
IC50 (Stromelysin-1): 561 nM
IC50 (Matrilysin): 1260 nM
IC50 (Neutrophil collagenase): 101 nM
Ratio (Homo sapiens): 660
IC50 [4]: 30000 nM

COc1c(I)ccc2oc(C(=O)Nc3ccc(-c4ccc(S(=O)(=O)N[C@H](C(=O)O)C(C)C)cc4)cc3)c(C)c12
IC50 [1]: 15000 nM
inhibition [2]: 38%
inhibition [3]: 51%
IC50 (Interstitial collagenase): 60000 nM
IC50 (Stromelysin-1): 1060 nM
IC50 (Matrilysin): 3010 nM
IC50 (Neutrophil collagenase): 404 nM
Ratio (Homo sapiens): 650
IC50 [4]: 30000 nM

COc1cccc2oc(C(=O)Nc3ccc(-c4ccc(S(=O)(=O)N[C@H](C(=O)O)C(C)C)cc4)cc3)cc12
Ratio (Homo sapiens): 7

CC(C)[C@H](NS(=O)(=O)c1ccc(-c2ccc(NC(=O)c3oc4ccccc4c3-c3ccccc3)cc2)cc1)C(=O)O
IC50 [6]: 1200 nM
Ratio (Homo sapiens): 6

CCc1ccc2oc(C(=O)Nc3ccc(-c4ccc(S(=O)(=O)N[C@H](C(=O)O)C(C)C)cc4)cc3)c(C)c2c1O
IC50 [1]: 4400 nM
inhibition [2]: 42%
inhibition [3]: 55%
IC50 (Interstitial collagenase): 23400 nM
IC50 (Stromelysin-1): 492 nM
IC50 (Matrilysin): 458 nM
IC50 (Neutrophil collagenase): 94 nM
Ratio (Homo sapiens): 250
IC50 [4]: 15800 nM

COc1c(CO)ccc2oc(C(=O)Nc3ccc(-c4ccc(S(=O)(=O)N[C@H](C(=O)O)C(C)C)cc4)cc3)c(C)c12
IC50 (Collagenase 3): 7.8 nM
IC50 [6]: 1410 nM
Ratio (Homo sapiens): 180

COc1c(Br)ccc2oc(C(=O)Nc3ccc(-c4ccc(S(=O)(=O)N[C@H](C(=O)O)C(C)C)cc4)cc3)cc12
IC50 (Collagenase 3): 0.4 nM
IC50 [6]: 7.1 nM
Ratio (Homo sapiens): 18

COc1c(Br)ccc2oc(C(=O)Nc3ccc(-c4ccc(S(=O)(=O)N[C@@H](C(=O)O)C(C)C)cc4)cc3)c(C)c12
IC50 (Collagenase 3): 3.4 nM
IC50 [6]: 688 nM
Ratio (Homo sapiens): 202

COc1cccc2oc(C(=O)Nc3ccc(-c4ccc(S(=O)(=O)N[C@H](C(=O)O)C(C)C)cc4)cc3)c(C)c12
Ratio (Homo sapiens): 110

Cc1c(C(=O)Nc2ccc(-c3ccc(S(=O)(=O)N[C@@H](C(=O)O)C(C)C)cc3)cc2)oc2ccccc12
IC50 (Collagenase 3): 17 nM
IC50 [6]: 164 nM
Ratio (Homo sapiens): 10

CCc1ccc2oc(C(=O)Nc3ccc(-c4ccc(S(=O)(=O)N[C@H](C(=O)O)C(C)C)cc4)cc3)c(C)c2c1OCc1ccccc1
Ratio (Homo sapiens): 65

COc1c(C)ccc2oc(C(=O)Nc3ccc(-c4ccc(S(=O)(=O)N[C@H](C(=O)O)C(C)C)cc4)cc3)c(C)c12
IC50 [1]: 8600 nM
inhibition [2]: 39%
inhibition [3]: 76%
IC50 (Interstitial collagenase): 37100 nM
IC50 (Stromelysin-1): 442 nM
IC50 (Matrilysin): 534 nM
IC50 (Neutrophil collagenase): 52 nM
Ratio (Homo sapiens): 330
IC50 [4]: 15000 nM

CC(C)[C@@H](NS(=O)(=O)c1ccc(-c2ccc(NC(=O)c3cc4ccccc4o3)cc2)cc1)C(=O)O
IC50 [6]: 4.6 nM
